According to patent publication US20250115571A1, “OXOPIPERAZINE DERIVATIVES” (Inthera Bioscience AG, priority 2017, published 2025):

How the values were obtained:
Test in all cases: 5-day cell proliferation assay (CTG)
Assay type in all cases: cell-based
[1] = tested on: 786-O; conditions: Homo sapiens, 786-0, 120 h, Kidney
Procedure, shortened: (§1)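 Day −1: cells plated, incubated overnight at 37 °C. Day 0: compounds added at tenfold working dilution, triplicate wells; baseline plate read with CTG. Day 5: CTG endpoint luminescence; GI50 fitted against untreated cells.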

[2] = tested on: BT-20; conditions: Homo sapiens, 120 h, BT-20, Breast
Procedure, shortened: as §1

[3] = tested on: CaSki; conditions: Homo sapiens, Ca-Ski, 120 h, Cervix
Procedure, shortened: as §1

[4] = tested on: Caco-2; conditions: Homo sapiens, 120 h, Caco-2, Colorectal
Procedure, shortened: as §1

[5] = tested on: Caki 2; conditions: Homo sapiens, 120 h, Caki 2, Kidney
Procedure, shortened: as §1

[6] = tested on: H4; conditions: Homo sapiens, 120 h, H4, Brain/Nerves
Procedure, shortened: as §1

[7] = tested on: HCC4006; conditions: Homo sapiens, 120 h, HCC4006, Lung
Procedure, shortened: as §1

[8] = tested on: KYSE-150; conditions: Homo sapiens, 120 h, KYSE-150, Oesophagus
Procedure, shortened: as §1

[9] = tested on: LNCaP-FGC; conditions: Homo sapiens, 120 h, Prostate
Procedure, shortened: as §1

[10] = tested on: MCF7; conditions: Homo sapiens, 120 h, MCF7, Breast
Procedure, shortened: as §1

[11] = tested on: MKN-1; conditions: Homo sapiens, 120 h, MKN-1, Stomach/Gastric
Procedure, shortened: as §1

[12] = tested on: MKN-45; conditions: Homo sapiens, 120 h, MKN-45, Stomach/Gastric
Procedure, shortened: as §1

[13] = tested on: MOLM-13; conditions: Homo sapiens, 120 h, MOLM-13, Leukemia
Procedure, shortened: as §1

[14] = tested on: MS751; conditions: Homo sapiens, 120 h, MS751, Cervix
Procedure, shortened: as §1

[15] = tested on: Malme-3M; conditions: Homo sapiens, 120 h, Skin, highest tested concentration 10 μM
Procedure, shortened: as §1

[16] = tested on: PC-3; conditions: Homo sapiens, 120 h, PC-3, Prostate
Procedure, shortened: as §1

[17] = tested on: SK-BR-3; conditions: Homo sapiens, 120 h, SK-BR-3, Breast
Procedure, shortened: as §1

Q: Which GI50 [1] does the source give for CC(C)C[C@@H]1NCCN([C@@H](CC(C)C)C(=O)N2CCC3(C[C@@H]2C)OCC(CN2CCCC2)CO3)C1=O (stereo partly drawn) [Compound 258, (3S)-1-[(2S)-4-methyl-1-oxo-1-[(3s,6s,8S)-8-methyl-3-(pyrrolidin-1-ylmethyl)-1,5-dioxa-9-azaspiro[5.5]undec-an-9-yl]pentan-2-yl]-3-(2-methylpropyl)piper-azin-2-one (^≠), isomer Z] here?
A: 0.028 µM

Q: And the GI50 [2]?
A: 0.015 µM

Q: And the GI50 [3]?
A: 0.035 µM

Q: What about the GI50 [4] of the same compound?
A: 0.01 µM

Q: What about the GI50 [5] of the same compound?
A: 0.014 µM

Q: And the GI50 [6]?
A: 0.011 µM

Q: What about the GI50 [7] of the same compound?
A: 0.008 µM

Q: And the GI50 [8]?
A: 0.011 µM

Q: And the GI50 [9]?
A: 0.002 µM

Q: What about the GI50 [10] of the same compound?
A: 0.055 µM

Q: What about the GI50 [11] of the same compound?
A: 0.002 µM

Q: What about the GI50 [12] of the same compound?
A: 0.004 µM

Q: And the GI50 [13]?
A: 0.004 µM

Q: What about the GI50 [14] of the same compound?
A: 0.051 µM

Q: And the GI50 [15]?
A: > 10 µM

Q: What about the GI50 [16] of the same compound?
A: 0.013 µM

Q: What about the GI50 [17] of the same compound?
A: 0.012 µM
